In EP0298350A2, “Chiral 6-hydroxymethyl-3-amino-4,5-dihydroxy piperidines, their intermediates, processes for their preparation and their use” (BAYER AG, priority 1987, dated 1989):

Legend:
Glykoproteinen = assay: Effect on half-life of glycoproteins; details: qualitative statement, no value given
[1] = target: α-N-Acetyl-galaktosaminidase; assay: Inhibition of α-N-acetylgalactosaminidase; type: biochemical; details: α-N-Acetyl-galaktosaminidase aus Charonia lampas; read-out: IC₅₀
[2] = tested on: UDP-gal NAc: polypeptid-α-N-acetylgalaktosaminyl-transferase; assay: Inhibition of polypeptide α-N-acetylgalactosaminyl transferase activity; type: biochemical; details: qualitative statement, no value given
Glukosidasen = details: known from Angew. Chem. 93, 738 (1981); cited from earlier work

Row | Structure (SMILES) | Halbwertszeit von Glykoproteinen (Glykoproteinen) | IC50 [1] [nM] | Aktivität der UDP-gal NAc: polypeptid-α-N-acetylgalaktosaminyl-transferase [2] | Hemmwirkung auf Glukosidasen (Glukosidasen)
1 | CC(=O)N[C@H]1CN[C@H](CO)[C@H](O)[C@@H]1O [If, 2-N-Acetyl-1,2,5-tridesoxy-1,5-imino-D-galaktit] | erhöht | 1400 | inhibiert | –
2 | OC[C@H]1NC[C@H](O)[C@@H](O)[C@@H]1O [1-Desoxynojirimycin] | – | – | – | Hemmwirkung
